Read-outs that look alike come from different tables or passages of the source.
Key:
[1] = Effect of pH on drug penetration through normal untreated hairless mouse skin (Example 6A); assay type: in vitro ADME; conditions: mouse
[2] = tested on: hairless mouse skin pretreated with Sigma papain; assay: Effect of pH on drug penetration through hairless mouse skin pretreated with Sigma papain (Example 6B); assay type: in vitro ADME; parameters: E: unit not given here; conditions: for E: Sigma papain 0.093 mg/ml for 24 hours
Method: (§1) B. Effect of pH on drug penetration through hairless mouse skin pretreated with Sigma papain of concentration 0.093 mg/ml for 24 hours

[3] = as above; assay type: in vitro ADME; parameters: E: unit not given here; conditions: mouse, read-out: P (permeability)
Method: as §1

mouse skin [4] = assay: Citric acid penetration through mouse skin with two sources of papain (Example 8); assay type: in vitro ADME; conditions: FIG. 20, 0.170 mg papain in 0.1 ml of water; Sigma papain not activated
Method: Each enzyme preparation contained 0.170 mg of papain dissolved in 0.1 ml of water. One sample of papain was obtained from Allergan. The other was obtained from Sigma Chemical. […] The Sigma Chemical papain was not activated in this experiment.

Nude Mouse Skin [5] = assay: In vivo skin recovery following papain treatment: percent urinary recovery 7 days after papain (Example 1B); parameters: species or system congenitally athymic nude mice
Method: Experiments were conducted to measure the time required for papain-treated mice to return to normal levels of absorption. These experiments were conducted as described in Example 1A, except that following the removal of papain from the mouse's skin, the mice were maintained separately in metabolism cages for varying periods of time prior to the application of the labeled model compounds. After various time intervals, 150 μl of radiolabeled chemicals were applied separately on the 1 cm^2 marked areas on the backs of the mice, where papain had previously been applied. The mice were then kept in separate metabolism cages and at time intervals of 17, 41, and 65 hours, urine was collected and counted using a scintillation counter.

[6] = tested on: Papain-Treated Athymic Nude Mice Skin; assay: In vitro permeation through excised papain-treated athymic nude mouse skin, Franz-type diffusion cells (Example 2); assay type: in vitro ADME, congenitally athymic nude mice
Method: Because of some complications encountered during studies utilizing papain treatment by in vivo method (e.g. extended excretion due to storage in various body compartments, delayed response times, etc.) it was decided that additional studies should be conducted wherein the mouse skin was allowed to recover in situ, then excised after various time intervals and evaluated by in vitro permeation methods.
These experiments were conducted by preparing, applying, and occluding papain solutions onto the backs of congenitally athymic nude mice in the same manner as described in Example 1A. At the end of the 24-hour papain treatment, the skin was again cleansed of excess solution. Skin was then excised from part of the animals. The remainder of the animals were housed individually in regular cages for various periods of time (24 hours and 48 hours), after which the treated areas were excised. Immediately following excision of the treated areas, the skins were mounted over Franz-Type, Single-Compartment Diffusion Cells. Four hundred μl of saturated solutions of radiolabeled citric acid, TEAB, glucose, and hydrocortisone were applied, individually, to the exposed surface of the mounted skins on the donor chamber. Saturated solutions of each of these substances were used in order to ensure maximum availability of labeled substances. At varying time intervals, 100 μl samples were removed from the receiver chambers for scintillation counting. All experiments were conducted at 25° C.

Nude Mouse Skin [7] = assay: Percent urinary recovery of radiolabeled chemicals and protein through nude mouse skin immediately following papain treatment, and controls (Example 1A)
Method: Various anionic, cationic, and nonionic chemicals were utilized as model compounds to determine the influence of proteolytic enzymes of the transdermal penetration of these substances. […] Additional studies were performed using ^14 -C-labeled albumin, lysozyme, and insulin to determine the ability of the proteolytic enzymes to enhance the percutaneous absorption of larger molecules.
Two hundred μl of this solution was applied on to 1 cm^2 areas on the back of congenitally athymic nude mice. The 1 cm^2 areas were covered with folded gauze pads to absorb the excess papain solution, then the areas were occluded with a transparent dressing (Bioclusive Tape) and an adhesive tape. Each mouse was individually housed in separate cages for 24 hours. At the end of this time, residual papain on the surface of the mouse's skin was removed by washing. After cleansing the skin, 150 μl of radiolabeled material was applied separately on each marked area of mouse skin and covered with gauze sponge and Bioclusive tape and adhesive tape. Mice were kept in metabolism cages, one animal per cage, and urine samples collected for scintillation counting to determine the quantity of radiolabeled materials being excreted. Parallel studies were conducted simultaneously on non- papain-treated living mice. These studies served as controls against which the treated animals were measured.

[8] = tested on: normal untreated hairless mouse skin; assay: Effect of pH on drug penetration through normal untreated hairless mouse skin (Example 6A); assay type: in vitro ADME; conditions: pH 8.0
mouse skin [9] = tested on: mouse skin
Text: In this experiment, varying amounts of Sigma papain, activated with cysteine and EDTA, were used.

Hairless mouse skin = conditions: papain 0.093 mg/ml, pH 7.4, 24 hours pretreatment
Method: Hairless mouse skin was pretreated with papain at a concentration of 0.093 mg/ml at pH 7.4 for 24 hours.

skin = assay: Pretreatment of skin samples with papain: drug penetration, skin damage and activation
Method: Whatever the enzyme or enzymes selected, each is typically admixed with a liquid, such as water or ethanol to form an enzyme preparation. The concentration of enzymes(s) in liquid will be of a sufficient quantity to increase the skin's permeability to selected drugs over a predetermined time period. […] Concentrations of papain in water will generally be greater than about 0.019 milligrams/milliliter (mg/ml). Preferred concentrations of papain in water will be less than about 0.093 mg/ml.
For example, papain from Sigma Chemical may be activated with the chelating agent ethylenediaminetetraacetic acid ("EDTA"). […] Amounts of EDTA in a papain enzyme preparation will vary from 2 mg/ml to about 20 mg/ml. The amino acid cysteine can also serve as an activating agent.

mouse skin [10] = assay: Skin damage as measured by bleeding of mouse skin (Example 5); assay type: in vivo
Method: The absolute amounts and relative concentrations of an enzyme preparation containing papain to determine skin damage as measured by bleeding of mouse skin was determined.

[11] = pH 5.9, read-out: P (permeability)
[12] = pH 6.6, read-out: P (permeability)
[13] = pH 5.9, Sigma papain 0.093 mg/ml for 24 hours, pH 5.9
[14] = pH 6.6, Sigma papain 0.093 mg/ml for 24 hours, pH 6.6
[15] = pH 7.4, Sigma papain 0.093 mg/ml for 24 hours, pH 7.4
[16] = 7 days following papain treatment
[17] = 7 hours exposure, 1 cm^2 section of skin, saturated solution in water, 25° C
[18] = control, no papain treatment, immediate
[19] = immediately following papain treatment
[20] = papain greater than 0.093 mg/ml, pH 7.4

Molecule: CC(=O)OCC[N+](C)(C)C.[Cl-] [Acetylcholine Chloride, acetylcholine chloride]
- Papp [1, 11]: 0.0291 ×10⁻⁶ cm/s
- Papp [1, 12]: 0.026 ×10⁻⁶ cm/s
- Papp ([1]; pH 7.4, read-out: P (permeability)): 0.032 ×10⁻⁶ cm/s
- Papp ([1]; pH 8.0, read-out: P (permeability)): 0.0466 ×10⁻⁶ cm/s
- E ([2]; pH 5.9): 103.09
- E ([2]; pH 6.6): 149.23
- E ([2]; pH 7.4): 100.94
- E ([2]; pH 8.0): 67.38
- Papp [3, 13]: 3 ×10⁻⁶ cm/s
- Papp [3, 14]: 3.88 ×10⁻⁶ cm/s
- Papp [3, 15]: 3.23 ×10⁻⁶ cm/s
- Papp ([3]; pH 8, Sigma papain 0.093 mg/ml for 24 hours, pH 8.0): 3.14 ×10⁻⁶ cm/s

Molecule: C=CCc1ccccc1OCC(O)CNC(C)C (stereo not shown) [Alprenolol, alprenolol]
- E ([2]; pH 5.9): 22.39
- E ([2]; pH 6.6): 17.18
- E ([2]; pH 7.4): 7.17
- E ([2]; pH 8.0): 7.86
- P (permeability) ([2]; mouse, pH 8): 1.65 = 10^-6 cm/sec

Molecule: O=C(O)CC(O)(CC(=O)O)C(=O)O [Citric Acid, citric acid]
- penetration through mouse skin (mouse skin [4]): enhanced to a greater extent by the Allergan papain than that of Sigma Chemical
- Percent Recovery (urinary recovery) (Nude Mouse Skin [5]; [16]): 0.2%
- transdermal penetration [6, 17]: about 55 mg

Molecule: OC[C@H]1OC(O)[C@H](O)[C@@H](O)[C@@H]1O (stereo partly shown) [Glucose, glucose]
- Percent Recovery (urinary recovery) (Nude Mouse Skin [5]; [16]): 0.1%
- transdermal penetration [6]: about 22 mg
- Percent Recovery (urinary recovery) (Nude Mouse Skin [7]; [18]): 0.07%
- Percent Recovery (urinary recovery) (Nude Mouse Skin [7]; [19]): 1.8%

Molecule: C[C@]12CCC(=O)C=C1CC[C@@H]1[C@@H]2[C@@H](O)C[C@@]2(C)[C@H]1CC[C@]2(O)C(=O)CO [Hydrocortisone, hydrocortisone]
- Percent Recovery (urinary recovery) (Nude Mouse Skin [5]; [16]): 0.6%
- transdermal penetration ([6]; 7 hours exposure, 1 cm^2 section of skin, saturated solution in ethanol, 25° C): about 125 μg
- Percent Recovery (urinary recovery) (Nude Mouse Skin [7]; [18]): 2.5%
- Percent Recovery (urinary recovery) (Nude Mouse Skin [7]; [19]): 24.7%

Molecule: CC(=O)[C@H]1CC[C@H]2[C@@H]3CCC4=CC(=O)CC[C@]4(C)[C@H]3CC[C@]12C [Progesterone, progesterone]
- P (permeability) [8]: 0.247 ×10⁻⁶ cm/s
- Papp [1, 11]: 2.88 ×10⁻⁶ cm/s
- Papp [1, 12]: 2.92 ×10⁻⁶ cm/s
- E ([2]; pH 5.9): 1.25
- E ([2]; pH 6.6): 1.50
- E ([2]; pH 7.4): 1.17
- E ([2]; pH 8.0): 1.17
- Papp [3, 13]: 3.6 ×10⁻⁶ cm/s
- Papp [3, 14]: 4.39 ×10⁻⁶ cm/s
- Papp [3, 15]: 3.41 ×10⁻⁶ cm/s

Molecule: CC[N+](CC)(CC)CC.[Br-] [TEAB, tetraethylammonium bromide]
- drug penetration through mouse skin (mouse skin [9]): varies directly with the amount of papain used
- increase in absorption in comparison to normal, untreated mouse skin (Hairless mouse skin): 33 fold
- Percent Recovery (urinary recovery) (Nude Mouse Skin [5]; mouse, in vivo, topical or ocular): 5.3%
- transdermal penetration [6, 17]: ~19 mg
- penetration through the skin (skin): increases the penetration

Molecule: CC(=O)CC(c1ccccc1)c1c(O)c2ccccc2oc1=O (stereo not shown) [Warfarin, warfarin]
- Papp ([3]; Sigma papain 0.093 mg/ml for 24 hours, pH 5.9): 1.27 ×10⁻⁶ cm/s
- Papp ([3]; Sigma papain 0.093 mg/ml for 24 hours, pH 6.6): 1.2 ×10⁻⁶ cm/s
- Papp ([3]; Sigma papain 0.093 mg/ml for 24 hours, pH 7.4): 0.99 ×10⁻⁶ cm/s
- Papp ([3]; Sigma papain 0.093 mg/ml for 24 hours, pH 8.0): 1.21 ×10⁻⁶ cm/s

Molecule: Albumin: 14-C-labeled albumin
- Percent Recovery (urinary recovery) (Nude Mouse Skin [5]; [16]): 0.0%

Molecule: Insulin: 14-C-labeled insulin
- Percent Recovery (urinary recovery) (Nude Mouse Skin [5]; [16]): 0.0%

Molecule: Lysozyme: 14-C-labeled lysozyme
- Percent Recovery (urinary recovery) (Nude Mouse Skin [5]; [16]): 0.0%

B1: papain: A preferred enzyme is papain, which is readily available from Allergan of Irvine, Calif., Sigma Chemical Company of St. Louis, Mo., and other sources (protein, UniProt P00784 134-345, looked up)
Papain: IPEYVDWRQKGAVTPVKNQGSCGSCWAFSAVVTIEGIIKIRTGNLNEYSEQELLDCDRRSYGCNGGYPWSALQLVAQYGIHYRNTYPYEGVQRYCRSREKGPYAAKTDGVRQVQPYNEGALLYSIANQPVSVVLEAAGKDFQLYRGGIFVGPCGNKVDHAVAAVGYGPNYILIKNSWGTGWGENGYIRIKRGTGNSYGVCGLYTSSFYPVKN
- time until bleeding observed (mouse skin [10]; absolute amount of papain: 0.010 mg/0.108 ml): > 24 h
- time until bleeding observed (mouse skin [10]; absolute amount of papain: 0.030 mg/0.108 ml): about 5.0 hrs
- time until bleeding observed (mouse skin [10]; absolute amount of papain: 0.050 mg/0.180 ml): about 1.5 hrs
- time until bleeding observed (mouse skin [10]; absolute amount of papain: 0.070 mg/0.250 ml): about 0.5 hrs
- time until bleeding observed (mouse skin [10]; concentration of papain: 0.010 mg/0.108 ml): > 24 h
- time until bleeding observed (mouse skin [10]; concentration of papain: 0.020 mg/0.108 ml): > 24 h
- time until bleeding observed (mouse skin [10]; concentration of papain: 0.030 mg/0.108 ml): ~24 h
- time until bleeding observed (mouse skin [10]; concentration of papain: 0.040 mg/0.108 ml): ~24 h
- penetration of drug through the skin (skin; 0.10 molar cysteine with 0.0375 molar EDTA as activating agent): greater penetration of drug through the skin
- drug penetration (skin; [20]): greater drug penetration
- skin damage (skin; [20]): damages the skin, possibly leading to bleeding

From patent publication US5156846A, “Percutaneous drug delivery system” (University of Utah, priority 1991, dated 1992)
